Measurements from the supplement of paper PMC11451515.

System: NOMO1
Assay: cell viability relative to DMSO control; higher = less cytotoxic
Conditions: 48 h
Method in brief: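 Leukemia cells (NOMO1 or SEM, 500 cells/well; P12-Ichikawa, 1000 cells/well) were seeded in 5 μl in 1536-well plates after at least four passages of adaptation to each medium. They received library compounds in DMSO by pin dosing, 11 threefold points from 47 μM to 0.79 nM. Luminescence with CellTiter-Glo One was read after 48 h at 37°C. Viability is stated per plate relative to DMSO wells, with cell-free wells as background.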

[1] = HPLM + 10% dialyzed FBS, 0.000781 µM
[2] = HPLM + 10% dialyzed FBS, 0.00234 µM
[3] = HPLM + 10% dialyzed FBS, 0.00702 µM
[4] = HPLM + 10% dialyzed FBS, 0.0211 µM
[5] = HPLM + 10% dialyzed FBS, 0.0632 µM
[6] = HPLM + 10% dialyzed FBS, 0.19 µM
[7] = HPLM + 10% dialyzed FBS, 0.569 µM
[8] = HPLM + 10% dialyzed FBS, 1.71 µM
[9] = HPLM + 10% dialyzed FBS, 5.12 µM
[10] = HPLM + 10% dialyzed FBS, 15.4 µM
[11] = HPLM + 10% dialyzed FBS, 46.1 µM
[12] = RPMI 5 mM glucose + 10% FBS, 0.000781 µM
[13] = RPMI 5 mM glucose + 10% FBS, 0.00234 µM
[14] = RPMI 5 mM glucose + 10% FBS, 0.00702 µM
[15] = RPMI 5 mM glucose + 10% FBS, 0.0211 µM
[16] = RPMI 5 mM glucose + 10% FBS, 0.0632 µM
[17] = RPMI 5 mM glucose + 10% FBS, 0.19 µM
[18] = RPMI 5 mM glucose + 10% FBS, 0.569 µM
[19] = RPMI 5 mM glucose + 10% FBS, 1.71 µM
[20] = RPMI 5 mM glucose + 10% FBS, 5.12 µM
[21] = RPMI 5 mM glucose + 10% FBS, 15.4 µM
[22] = RPMI 5 mM glucose + 10% FBS, 46.1 µM
[23] = RPMI 5 mM glucose + 10% dialyzed FBS, 0.000781 µM
[24] = RPMI 5 mM glucose + 10% dialyzed FBS, 0.00234 µM
[25] = RPMI 5 mM glucose + 10% dialyzed FBS, 0.00702 µM
[26] = RPMI 5 mM glucose + 10% dialyzed FBS, 0.0211 µM
[27] = RPMI 5 mM glucose + 10% dialyzed FBS, 0.0632 µM
[28] = RPMI 5 mM glucose + 10% dialyzed FBS, 0.19 µM
[29] = RPMI 5 mM glucose + 10% dialyzed FBS, 0.569 µM
[30] = RPMI 5 mM glucose + 10% dialyzed FBS, 1.71 µM
[31] = RPMI 5 mM glucose + 10% dialyzed FBS, 5.12 µM
[32] = RPMI 5 mM glucose + 10% dialyzed FBS, 15.4 µM
[33] = RPMI 5 mM glucose + 10% dialyzed FBS, 46.1 µM

SMILES | cell viability [1] [%] | cell viability [2] [%] | cell viability [3] [%] | cell viability [4] [%] | cell viability [5] [%] | cell viability [6] [%] | cell viability [7] [%] | cell viability [8] [%] | cell viability [9] [%] | cell viability [10] [%] | cell viability [11] [%] | cell viability [12] [%] | cell viability [13] [%] | cell viability [14] [%] | cell viability [15] [%] | cell viability [16] [%] | cell viability [17] [%] | cell viability [18] [%] | cell viability [19] [%] | cell viability [20] [%] | cell viability [21] [%] | cell viability [22] [%] | cell viability [23] [%] | cell viability [24] [%] | cell viability [25] [%] | cell viability [26] [%] | cell viability [27] [%] | cell viability [28] [%] | cell viability [29] [%] | cell viability [30] [%] | cell viability [31] [%] | cell viability [32] [%] | cell viability [33] [%]
C[Se]CCC(N)C(=O)O (centres undefined) | 90.1 | 90.2 | 85.7 | 95.7 | 99.3 | 93 | 93.1 | 59.1 | 83.5 | 69 | 73.7 | 79.9 | 83.5 | 97.2 | 84.4 | 88.5 | 83.3 | 89.3 | 86.7 | 79.4 | 84 | 79 | 77.2 | 87.3 | 85.4 | 81.9 | 91.1 | 89.1 | 73.1 | 77 | 95.7 | 74.2 | 76.2
CC(=O)SCC(Cc1ccccc1)C(=O)NCC(=O)OCc1ccccc1 (centres undefined) | 88.4 | 85.1 | 102 | 104 | 102 | 106 | 107 | 88.9 | 63.9 | 14.7 | 9.71 | 81.7 | 82.6 | 80.3 | 93.4 | 84.3 | 89.4 | 95.2 | 95 | 72.1 | 15.1 | 10.7 | 78.2 | 74.3 | 86.7 | 85.6 | 96.9 | 98.4 | 95.6 | 76.8 | 65.6 | 13.4 | 13.2
CCN(CC)CCOC1=CC=C(NC2=NC=C3\C=C(/C(=O)N(C)C3=N2)C4=C(Cl)C=CC=C4Cl)C=C1 | 116 | 138 | 121 | 115 | 108 | 96.4 | 97.5 | 80.5 | 16.1 | 10.1 | 2.65 |  |  |  |  |  |  |  |  |  |  |  |  |  |  |  |  |  |  |  |  |  | 
COc1cc(N2CCC(N3CCN(C)CC3)CC2)ccc1Nc1ncnc(Nc2ccccc2[S+](=O)([O-])C(C)C)n1 | 92.5 | 92.9 | 95.9 | 111 | 65 | 123 | 144 | 117 | 102 | 54.4 | 31 | 110 | 103 | 113 | 119 | 88 | 117 | 115 | 108 | 110 | 62.5 | 43.2 | 87.6 | 87.7 | 91.9 | 89.3 | 69.1 | 107 | 123 | 114 | 109 | 58.3 | 34.5
c1ccc2c(-c3cnn4cc(-c5ccc(N6CCNCC6)cc5)cnc34)ccnc2c1 | 79.8 | 77.8 | 134 | 166 | 144 | 143 | 146 | 121 | 114 | 111 | 90.3 | 93.8 | 91.3 | 139 | 133 | 132 | 137 | 128 | 126 | 122 | 120 | 87.7 | 83.9 | 72 | 122 | 120 | 173 | 150 | 141 | 144 | 146 | 117 | 77.8
CN[C@@H](C)C(=O)N[C@H]1CCCC[C@H]2CC[C@@H](C(=O)N[C@@H](c3ccccc3)c3cn(CCCCc4ccc(CCCCn5cc([C@@H](NC(=O)[C@@H]6CC[C@@H]7CCCC[C@H](NC(=O)[C@H](C)NC)C(=O)N76)c6ccccc6)nn5)cc4)nn3)N2C1=O | 82.8 | 79.3 | 56 | 61 | 42.3 | 54.4 | 50.6 | 47.9 | 48 | 27.5 | 33.4 | 85.6 | 82.4 | 80.8 | 87.9 | 48.4 | 61.5 | 74 | 70.8 | 51.8 | 51.2 | 57.1 | 75.9 | 81.6 | 84.8 | 64.9 | 65.5 | 72.2 | 53.6 | 52.2 | 42.6 | 54.7 | 34.2
Cc1c(OCC(F)(F)F)ccnc1C[S+]([O-])c1nc2ccccc2[nH]1 (centres undefined) | 100 | 100 | 107 | 96.6 | 108 | 118 | 122 | 97.7 | 113 | 122 | 110 | 110 | 114 | 105 | 113 | 105 | 108 | 119 | 103 | 118 | 108 | 117 | 102 | 111 | 111 | 109 | 113 | 113 | 115 | 120 | 128 | 113 | 123
